What all share (format): cell-based, human
For test [1], the system named is hPSCs (hPSC-to-NC transition). The test is described as follows: hPSC-to-NC differentiation, flow cytometry of HNK-1+ p75NTR+ cells. Conditions: for percentage of HNK-1+ p75NTR+ cells (NC yield): flow cytometry at day 10. On the technique in general: In flow cytometry, cells or beads pass a laser one at a time.
Test [2] has as its system ENCC-derived neurons in HCO explants. The experiment in a line: Ex vivo neuromuscular coupling test of HCO muscle strips (DMPP stimulation).
Test [3] relates to HCOs+ENCCs explants. The test is described as follows: Electrical-field stimulation (EFS) of explanted innervated HCO kidney grafts.
In test [4] the test system is hPSC-derived NC cells. The test is described as follows: In vitro neuronal differentiation of FACS-sorted NC cells, immunocytochemistry. Conditions: NC^SAG0-10 cells, day 22 of differentiation. The text has this:
On the other hand, NC^SAG0-10 cells could grow and expand as competently as the control cells. Applicant then examined the differentiation potential of NC^SAG0-10 cells on the basis of their neuronal differentiation capability, as monitored by the expression of pan-neuronal markers (HU, TUJ1 and PGP9.5) and subtype markers, such as tyrosine hydroxylase (TH) for dopaminergic neurons and vasoactive intestinal polypeptide (VIP) for cholinergic neurons, which are the major subtypes of nerve cells found in the ENS.
Around 40 thousand FACS-enriched NC cells were seeded as droplets on poly-ornithine/laminin/fibronectin (PO/LM/FN)-coated 24 well plate in N2 medium containing 10 ng/ml FGF2, 3 μM CHIR99021 and 10 μM Y-27632. […]
For immunocytochemistry, the cells were fixed with 4% paraformaldehyde in PBS at room temperature for 30 min, followed by blocking with 1% bovine serum albumin (BSA) (Thermo Scientific, 23209) with or without 0.1% Triton X-100 (Sigma, T8787) in PBS buffer. […] Quantitative image analysis of differentiated neuronal cultures was performed with ImageJ. A minimum of 4,000 cells were analyzed per sample. Percentages of neuronal cells were measured over the total number of cells (DAPI) and the values reported in bar charts represent the mean±SEM.

Test [5] deals with hPSC-derived NC cells. The test is described as follows: Single-cell RNA-seq clustering of hPSC-derived NC cells. The conditions noted are these: SAG treatment groups (day 0-4, day 0-10). The text has this: To understand how HH signaling influences the topology of the neuronal differentiation path of NC, Applicant profiled additional 1,146 single-cell transcriptomes of NC cells with the constant (day 0-10) or early-phase (day 0-4) SAG treatment and NC-derived neurons sampled from day 32 of differentiation as shown in FIG. 4A. Together with 392 control NC cells, a total of 1,538 individual cells were sequenced with 5844 median genes and 1.16 million mean confident mapped reads per cell (FIG. 8). […]
Bulk and single-cell (sc) RNA sequencing were performed at the Centre of Genomic Science, The University of Hong Kong. […] Then, 1 μl of cDNA was checked and quantified on an Agilent Bioanalyzer high-sensitivity DNA chip. […] Libraries were checked and quantified on an Agilent Bioanalyzer high-sensitivity DNA chip (size range 150-2000 bp) and by Qubit dsDNA BR (Molecular Probes). […]
Fastq files with paired-end reads were aligned to the ENSEMBL GRCh38 (release 90, https://www.ensembl.org/) human transcriptome using Bowtie2 v2.3.4.1 (Langmead and Salzberg, 2012) with options ‘—sensitive—mp 1,1—np 1—score-min L,0,-0.1-I 1-X 2000—no-mixed—no-discordant-N 1-L 25-k 200’ which allows one mismatch during sequence alignment. Quality control of the reads of each cell was assessed using FastQC v0.11.6 (FIG. 8). Gene expression level was quantified using TPM values generated by RSEM v1.3.0 (Li and Dewey, 2011). […]

The subject of test [6] is hPSCs. The test is described as follows: Early-phase lineage immunocytochemistry during NC induction (SOX2+NANOG-, SNAIL+, TUJ1+/TH+).
In test [7] the test system is HCOs+ENCCs. The experiment in a line: Innervated HCO model, immunostaining of neurons.

As for `CC1=C2C[C@H]3[C@@H](CC=C4C[C@@H](O)CC[C@@]43C)[C@@H]2CC[C@]12O[C@@H]1C[C@H](C)CN[C@H]1[C@H]2C` [cyclopamine], the “hPSC-to-NC transition (percentage of HNK-1+p75NTR+ cells)” value in test [1] is reported as “dramatically suppressed”.

As for `NC1=N[C@H](O)[C@H]2[C@H]3O[C@]4(O)O[C@@H]([C@@H](O)[C@@]2(N1)[C@@H]4O)[C@]3(O)CO` [TTX, tetrodotoxin], the DMPP-induced muscle contraction entry in test [2] was “completely abolished”. Further, in test [3], the EFS-induced contractions entry is reported as “completely inhibited” and the “contractile activity triggered by low-voltage stimulation” value was “completely inhibited”.

Consider `CNC1CCC(N(Cc2cccc(-c3ccncc3)c2)C(=O)c2sc3ccccc3c2Cl)CC1` (stereo not shown) [SAG], for which the “numbers of TH+ and VIP+ neurons compared to control” value in test [4] is “Significantly greater numbers”. For the same compound, the “contractile responses to DMPP compared to HCO+ENCC” value in test [2] (HCO+ENCC^SAG0_10) is given as “stronger contractile responses”. The “EFS-induced wave-like contractions compared to HCO+ENCC group” value in test [3] (HCO+ENCC^SAG0_10 explants (ENCCs derived with SAG day 0-10)) is given as “more profound series of wave-like contractions”. The “proportion of SAG-specific NC intermediates (Clusters 6 & 7; SOX10-, PHOX2B+, TUBB3high) in total population” value in test [5] is recorded as “up to 75%”. Besides, in test [6] (brief activation in early phase of NC induction, day 4 of differentiation), the “number of SOX2+NANOG- cells (ectoderm lineage commitment)” value is reported as “increases the number”. Further, the “formation of NC-like cells (SNAIL+)” value in test [6] (longer SAG treatment (4 days)) is on record as “emerged as early as day 4”. Moreover, the NC-to-neuron transition result in test [6] (prolonged (day 0-10) or late-phase (day 4-10) SAG treatment) is “boosted the NC-to-neuron transition”. Besides, the “percentage of HNK-1+ p75NTR+ cells (NC yield)” value in test [1] (SAG 1 μM, days 0-10 (constant), untreated 19.6±0.51%) was 42.5±9.3%; in test [1] (SAG added 4 days in early phase (day 0-4)), “up to 44.6±9.1%”. Besides, the “mature neurons expressing PGP9.5 and NF vs control” value in test [7] (HCO+ENCCs^SAG0_10 explants) is “more mature neurons”. Besides, in test [7] (HCOs with ENCCs^SAG0_10 in vitro (Day 28)), the “TUJ1+ and TH+ cells aligned with epithelial cells of HCOs vs control” value was “more TUJ1^+ and TH^+ cells”. The “survival and engraftment efficiency of ENCCs to HCOs” value in test [7] (SAG treatment during NC induction) is on record as “greatly improves”.
